Experiments:
GDE3 = target: T1, GDE3 (Homo sapiens, UniProt Q9HCC8); assay: validation and site of action of candidate drugs from fresh powder by western blot analysis and surface biotinylation assay; type: cell-based; conditions: for expression and localization of CNTFR and GDE3 / release of CNTFR into the medium: 10 μM in 0.1% DMSO, 24 hours treatment; for expression and localization of CNTFR and GDE3: western blot banding pattern and surface biotinylation; for release of CNTFR into the medium: HEK293T cells transfected with Luc-CNTFR and GDE3
T1 construct: expressed in transfected cells; host or cells: HEK293T
T1 sequence (Q9HCC8 1-539): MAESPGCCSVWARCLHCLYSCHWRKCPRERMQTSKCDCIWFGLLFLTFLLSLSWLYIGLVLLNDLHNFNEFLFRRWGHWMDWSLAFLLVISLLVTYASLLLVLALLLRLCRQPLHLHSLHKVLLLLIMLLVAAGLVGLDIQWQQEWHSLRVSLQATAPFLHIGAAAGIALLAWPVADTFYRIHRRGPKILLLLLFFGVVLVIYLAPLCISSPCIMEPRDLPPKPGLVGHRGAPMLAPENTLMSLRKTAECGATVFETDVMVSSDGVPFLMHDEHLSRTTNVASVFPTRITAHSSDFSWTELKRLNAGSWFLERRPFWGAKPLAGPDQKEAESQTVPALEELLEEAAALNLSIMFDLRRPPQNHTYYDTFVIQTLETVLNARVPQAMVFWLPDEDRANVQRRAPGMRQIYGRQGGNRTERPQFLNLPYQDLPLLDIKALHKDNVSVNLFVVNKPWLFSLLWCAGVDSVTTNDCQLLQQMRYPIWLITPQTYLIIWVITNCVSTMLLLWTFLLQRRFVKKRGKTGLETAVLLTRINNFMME
Description: FIG. 10. Validation and identification of the site of action of candidate drugs. Drugs hit by a high-throughput screening were prepared from the fresh powders and their activity was tested by established western blot analysis. […] Concentration of drugs=10 μM.
HEK293T cells were cultured in DMEM with 10% FBS on polyethyleneimine (PEI)-coated 12 well plates and transfected using Fugene6 agent (Roche). 24 hours after transfection, medium was changed to serum free DMEM and cells were incubated for an additional 24 hours. Medium and cell lysates were collected separately, and secretion and expression of proteins were analyzed by western blot and quantified using ImageJ (NIH). Antibodies used in Western analyses were rabbit-anti Jag1 (1:1000, Santa Cruz); rabbit anti-CRD (1:250, gift from Paul Englund) and mouse anti-myc (1.5 μg/ml for IP, DSHB) and as described.
Surface biotinylation assay was performed as previously described (29). Briefly, thirty hours after transfection of HEK293T cells with RECK/GDE and CreER constructs, cells were cooled on ice, washed twice with ice cold PBS++(1×PBS, 1 mM CaCl2, 0.5 mM MgCl2) and then incubated with PBS++ containing 1 mg/ml Sulfo-NHS-SSBiotin (Pierce) for 30 min at 4° C. Unreacted biotin was quenched by PBS++ containing 100 mM Glycine. Cultures were harvested in RIPA buffer, sonicated, and centrifuged at […] for 20 min at 4° C. The supernatant was rotated with Streptavidin beads (Pierce) for 2 hr at 4° C. Precipitates were washed with RIPA buffer three times and eluted with SDS gel loading buffer.
Currently, specific pharmacological modulators for GPI-AP cleavage have not been identified due to poor characterization of GPI-AP cleaving enzymes and the absence of an in vitro assay system. The robust GPI-AP cleaving activity of 6-TM GDEs has allowed the establishment of a luciferase-based, high throughput drug screening assay (signal to noise ratio=44.6; signal to background ratio=7.0; Z′ score=0.6: an excellent assay category). Measuring the GDE3-dependent release of GPI-anchored luciferase into the medium, the present inventors screened 3,360 compounds of the Johns Hopkins Drug library (JHDL), which contains FDA approved and phase II clinical trial drugs. The present inventors have selected common hits, which reduce or increase the release of luciferase activity into the medium more than 3 standard deviations of DMSO controls from duplicated experiments and identified 163 inhibitors (4.9%) and 138 activators (4.1%). Since the assay targets the whole GPI synthesis pathway as well as GPI cleaving activity, it is crucial to identify the site of action. Candidate drugs could modulate different steps of synthesis and cleavage of GPI-APs and will be categorized as follow: drugs activate or inhibit (i) the GPI biosynthesis machinery, (ii) glycosylation, (iii) surface expression of GPI-AP or GDE3, (iv) GPI cleaving activity of GDE, or (v) GPI cleaving-independent secretion of GPI-AP. Among 163 inhibitors, 23 drugs have been prepared from fresh powder stocks and their sites of action were tested by established western blot analyses and results are as follows: 10 drugs (no effect), 9 drugs (reducing surface expression and/or glycosylation of GPI-APs), and 4 drugs (inhibiting GPI-cleaving activity).
JHDL was used to screen drugs that affect the release of Luc-CNTFR into the medium. Drugs that increase or decrease the release index more than 3 SD of 16 DMSO controls of each plate were selected. Common hits of duplicated independent experiments were further analyzed. Among 3,360 drugs screened, we have identified 163 inhibitors and 138 activators. Among 163 inhibitors, 23 compounds were prepared from a fresh powder and their site of action was analyzed (10 μM in 0.1% DMSO, 24 hours treatment). To test whether drugs affect glycosylation and/or surface expression of CNTFR or GDE3, banding pattern of Western blot analysis and surface biotinylation assay were performed (FIG. 10). […]

[1] = target: Luc-CNTFR (firefly) [luciferase: P08659]; assay: cell-based or functional assay
[2] = Concentration of drugs=10 μM, western blot

Sequence of Luc-CNTFR (firefly) [luciferase: P08659] (P08659 whole entry): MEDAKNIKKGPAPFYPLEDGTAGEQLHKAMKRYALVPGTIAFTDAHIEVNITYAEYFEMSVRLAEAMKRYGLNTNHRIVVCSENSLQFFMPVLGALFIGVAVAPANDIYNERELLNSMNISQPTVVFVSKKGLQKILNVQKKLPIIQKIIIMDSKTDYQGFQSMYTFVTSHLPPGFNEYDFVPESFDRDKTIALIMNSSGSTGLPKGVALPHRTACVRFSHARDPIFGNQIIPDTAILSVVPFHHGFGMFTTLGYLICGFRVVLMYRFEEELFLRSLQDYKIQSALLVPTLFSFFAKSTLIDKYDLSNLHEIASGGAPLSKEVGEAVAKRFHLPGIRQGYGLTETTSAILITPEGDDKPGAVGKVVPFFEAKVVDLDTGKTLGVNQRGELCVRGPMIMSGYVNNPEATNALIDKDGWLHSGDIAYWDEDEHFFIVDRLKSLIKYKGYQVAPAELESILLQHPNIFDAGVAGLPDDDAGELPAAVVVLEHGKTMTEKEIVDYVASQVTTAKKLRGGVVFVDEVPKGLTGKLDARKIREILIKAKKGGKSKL

Row | Compound | expression and localization of CNTFR and GDE3 (GDE3) | release of CNTFR into the medium (GDE3; western blot) | further results
1 | CN1[C@@H]2CC[C@H]1C[C@@H](OC(c1ccccc1)c1ccccc1)C2 [benzotropine] | – | – | glycosylation pattern of CNTFR (GDE3; [2]): affect glycosylation pattern of CNTFR
2 | CC[C@H]1OC(=O)[C@H](C)[C@@H](O[C@H]2C[C@@](C)(OC)[C@@H](O)[C@H](C)O2)[C@H](C)[C@@H](O[C@@H]2O[C@H](C)C[C@H](N(C)C)[C@H]2O)[C@](C)(O)C[C@@H](C)C(=O)[C@H](C)[C@@H](O)[C@]1(C)O [erythromycin] | without affecting expression and localization of CNTFR and GDE3 | inhibitor of the release of CNTFR | lysate level of CNTFR (GDE3; [2]): without affecting the lysate level; release of CNTFR into the medium (GDE3; western blot, listed as Erythromycin): inhibits the release of CNTFR
3 | O=C(O)CCC(=O)c1ccc(-c2ccccc2)cc1 [fenbufen] | – | increase the release of CNTFR into the medium | –
4 | COc1c(C)c2c(c(O)c1C/C=C(\C)CCC(=O)O)C(=O)OC2 [mycophenolic acid] | – | – | glycosylation pattern of CNTFR (GDE3; [2]): affect glycosylation pattern of CNTFR
5 | CCCCCCCCC(=O)NCc1ccc(O)c(OC)c1 [nonivamide] | without affecting expression and localization of CNTFR and GDE3 | inhibitor of the release of CNTFR | –
6 | COc1ccc(CN(CCN(C)C)c2ccccn2)cc1 [pyrilamine] | – | increase the release of CNTFR into the medium | –
7 | N[C@@H](Cc1cc(I)c(Oc2cc(I)c(O)c(I)c2)c(I)c1)C(=O)O [thyroxine] | without affecting expression and localization of CNTFR and GDE3 | inhibitor of the release of CNTFR | –
8 | GDE3 (enzyme) | – | – | release index (luciferase activity in the medium/cell lysate) [1]: 7 fold
9 | vitamin B12 | without affecting expression and localization of CNTFR and GDE3 | inhibitor of the release of CNTFR | –

— patent publication US20160319324A1, “MODULATORS OF GLYCEROPHOSPHODIESTER PHOSPHODIESTERASE PROTEINS” (THE JOHNS HOPKINS UNIVERSITY, priority 2013, published 2016)
